# Source: patent US20190161480A1, “Chemical Compounds” (GLAXOSMITHKLINE INTELLECTUAL PROPERTY DEVELOPMENT LIMITED, priority 2016, published 2019)
# “Also recorded” adds a separate entry of the source.
# Tests used:
# PI3Kα = PI3Kα (Homo sapiens, UniProt P42336); assay: PI3K HTRF assay, PI3K-alpha; assay type: biochemical; conditions: read-out: pIC50 PI3Kα (converted); note: 250 µM ATP
# Procedure: (§1) The binding of compounds to PI3K-alpha/beta/delta/gamma is determined by homogeneous time resolved fluorescence (HTRF) assays as follows;
# (§2) Briefly, solid compound is dissolved in 100% DMSO at a concentration of 2 mM. Dilutions are prepared in 100% DMSO using a 1 in 4 serial step dilution. The dilutions are transferred to black low volume Greiner assay plates ensuring that the DMSO concentration is constant across the plate at 1% (0.1 μL/well).
# (§3) PI3K Reaction Buffer (contains 50 mM HEPES pH 7.0 (NaOH), 150 mM NaCl, 10 mM MgCl2, 2.3 mM sodium cholate, […] CHAPS made up in milliQ water). Fresh DTT is added at a final concentration of 1 mM on the day of use.
# (§4) Enzyme solutions: 1× PI3K Assay Buffer containing: • 550 pM PI3K-Alpha enzyme (275 pM final assay concentration) • 800 pM PI3K-Beta enzyme (400 pM final assay concentration) • 3 nM PI3K-Delta enzyme (1.5 nM final assay concentration) • 10 nM PI3K-Gamma enzyme (5 nM final assay concentration)
# (§5) These concentrations are optimal to achieve a signal:background of between 1.5-4.5. The enzyme solution is added to columns 1-24 (3 μL/well) and plates are incubated for 15 minutes at room temperature.
# (§6) Substrate solution: 1× PI3K Assay Buffer containing: • PI3K-Alpha: 500 μM ATP, 20 μM PIP2 and 120 nM biotin-PIP3.
# (§7) This is added to all wells and plates are incubated for 1 hour at room temperature.
# (§8) Detection solution: PI3K Detection Buffer (contains 50 mM HEPES pH 7.0 (HCl), 150 mM NaCl, 2.3 mM sodium cholate, 10 μM CHAPS, 240 mM potassium fluoride) containing 2 mM DTT (2× final assay concentration), 90 nM GRP-1 PH domain, 300 nM Streptavidin-APC and 24 nM Europium-anti-GST (6× final assay concentrations).
# (§9) This is mixed left at room temperature (protected from light).
# (§10) STOP solution: PI3K STOP Buffer (contains 50 mM HEPES pH 7.0 (HCl), 150 mM NaCl, 2.3 mM sodium cholate, 10 μM CHAPS, 150 mM EDTA).
# (§11) Detection solution is diluted 1:1 with STOP solution and added to all wells (3 μL/well). Plates are covered and incubated on the bench for 45-60 minutes.
# (§12) Plates are read on a PerkinElmer Envision, measuring TR-FRET between the complex formed between the GST-tagged PH domain and biotinylated PIP3 which both recruit fluorophores (Europium-labelled anti-GST & Strep-APC respectively). In the […] of an inhibitor, this complex is disrupted by the competitive action of non-biotinylated PIP3 (formed in the assay by the phosphorylation of PIP2 by the kinase & ATP). From this, the ratio of acceptor/donor was calculated (λex=317 nm, Δem donor=615 nm, Δem acceptor=665 nm) and used for data analysis.
# PI3Kβ = PI3Kβ (Homo sapiens, UniProt P42338); assay: PI3K HTRF assay, PI3K-beta; assay type: biochemical; conditions: read-out: pIC50 PI3Kβ (converted); note: 400 µM ATP
# Procedure: as §1, §2, §3, §4, §5, §6, §7, §8, §9, §10, §11, §12
# PI3Kγ = PI3Kγ (Homo sapiens, UniProt P48736); assay: PI3K HTRF assay, PI3K-gamma; assay type: biochemical; conditions: read-out: pIC50 PI3Kγ (converted); note: 15 µM ATP
# Procedure: as §1, §2, §3, §4, §5, §6, §7, §8, §9, §10, §11, §12
# PI3Kδ [1] = biological target: T1, PI3Kδ (Homo sapiens, UniProt O00329); assay: Protein mass spectrometry: covalent adduct assessment and competition experiment; assay type: binding
# Procedure: Compounds were incubated with 1 μM protein in a 10:1 inhibitor:protein ratio in buffer containing 50 mM HEPES, pH 7.0 (NaOH), 150 mM NaCl, 10 mM MgCl2, 2.3 mM cholate, 10 μM CHAPS. After the desired time, the assays were quenched with a 10% formic acid solution, and analysed by LCMS using an Agilent 6224 TOF LC/MS equipped with Agilent 1200 Series autosampler. Analytes were separated on a Polymer Labs (Agilent) PLRP-S column (50 mm×1 mm internal diameter, 5 μm particle size). LC conditions were 0.5 mL·min^−1 flow rate, 70° C., 10 μL injection volume. Gradient elution with (A) water containing 0.2% (v/v) formic acid and (B) acetonitrile containing 0.2% (v/v) formic acid. Gradient conditions were initially 10% B, increasing to 30% after 0.5 min, and then linearly to 80% B over 4.5 min, prior to a 1.2 min flush with 100% B and then a 1.9 minute equilibration with 10% B prior to the next injection. Mass spectra were then deconvoluted using Agilent MassHunter Qualitative Analysis version B.06.00 over the mass range 70-170 kDa to obtain the intact protein mass.
# A potent reversible ATP competitive inhibitor was incubated with 1 μM protein in a 10:1 inhibitor:protein ratio in buffer containing 50 mM HEPES, pH 7.0 (NaOH), 150 mM NaCl, 10 mM MgCl2, 2.3 mM cholate, 10 μM CHAPS at room temperature. […] The assay was quenched at 5 min and analysed using the procedure detailed above.
# PI3Kδ [2] = biological target: T1, PI3Kδ; assay: PI3Kδ jump dilution experiment; assay type: biochemical; conditions: 15 min incubation, 100-fold dilution, read for 30 minutes
# Procedure: Irreversibility of the PI3Kδ-Inhibitor complex, and reversibility of the non-covalent controls, was determined by jump-dilution assay as follows:
# PI3Kδ enzyme was made up to a 100× assay concentration (final assay concentration=6 nM) in buffer solution (contains 50 mM HEPES pH 7.0 (NaOH), 150 mM NaCl, 10 mM MgCl2, 2.3 mM sodium cholate, 10 μM CHAPS made up in milliQ water).
# 100× enzyme solution was added to compound wells (20 μL/well), and incubated for 15 mins, after which point the assay was diluted 100-fold with commercially available ADP QUEST substrate solution, available from DiscoverX (calatog number: 90-0071), (3200 μL DiscoverX Reagent A, 6400 μL DiscoverX Reagent B, 1 mM ATP and 40 μM PIP2). Production of fluorescence signal was then measured immediately using a Tecan Safire II plate reader at 30 second intervals for 30 minutes (λex=544 nm, λem=590 nm).
# PI3Kδ in CD4+ T cells = assay: Cellular washout in CD4+ T cells (αCD3 stimulation, IFNγ readout); assay type: cell-based, human; conditions: IC50 curve 48 h after washing cells versus no wash; five donors
# Procedure: CD4+T cells were isolated from leukodepletion filter samples taken from healthy volunteers using Histopaque 1077 (Sigma Aldrich). Briefly, blood was allowed to drip into a 50 mL falcon tube and mixed with PBS (40 mL). 20 mL of diluted blood was then slowly layered onto 15 mL of Histopaque in a 50 mL falcon tube, which was then centrifuged at 800 rcf for 20 min at room temperature. The PBMC layer was then collected with a pasteur pipette into a new 50 mL falcon tube, and up to 50 mL of PBS was added. Cells were centrifuged at 300-400 rcf for 10 min at room temperature, supernatant was discarded and a second washing step was performed with PBS. Cells were then resuspended in 40 mL PBS+0.5% Bovine Serum Albumin (BSA). Isolation of CD4+T cells was performed according to manufacturer's protocol (Miltenyi Biotec, 130-096-533). 1×10^6 CD4+T cells were dispensed into a 24 well plate with a final volume of 1 mL per well. Compounds at 1000× the final assay concentration, or DMSO, were then added to wells and cells were incubated for 2 h. 2×10^5 cells and media was added to a 96-well plate (in duplicate) and classified as no-wash. […] Supernatant and cells were centrifuged at 800 rcf for 5 min and 120 μL of supernatant was collected and analysed using MSD IFNγ kit as detailed above for the human whole-blood assay. […]
# T1 sequence (O00329 whole entry): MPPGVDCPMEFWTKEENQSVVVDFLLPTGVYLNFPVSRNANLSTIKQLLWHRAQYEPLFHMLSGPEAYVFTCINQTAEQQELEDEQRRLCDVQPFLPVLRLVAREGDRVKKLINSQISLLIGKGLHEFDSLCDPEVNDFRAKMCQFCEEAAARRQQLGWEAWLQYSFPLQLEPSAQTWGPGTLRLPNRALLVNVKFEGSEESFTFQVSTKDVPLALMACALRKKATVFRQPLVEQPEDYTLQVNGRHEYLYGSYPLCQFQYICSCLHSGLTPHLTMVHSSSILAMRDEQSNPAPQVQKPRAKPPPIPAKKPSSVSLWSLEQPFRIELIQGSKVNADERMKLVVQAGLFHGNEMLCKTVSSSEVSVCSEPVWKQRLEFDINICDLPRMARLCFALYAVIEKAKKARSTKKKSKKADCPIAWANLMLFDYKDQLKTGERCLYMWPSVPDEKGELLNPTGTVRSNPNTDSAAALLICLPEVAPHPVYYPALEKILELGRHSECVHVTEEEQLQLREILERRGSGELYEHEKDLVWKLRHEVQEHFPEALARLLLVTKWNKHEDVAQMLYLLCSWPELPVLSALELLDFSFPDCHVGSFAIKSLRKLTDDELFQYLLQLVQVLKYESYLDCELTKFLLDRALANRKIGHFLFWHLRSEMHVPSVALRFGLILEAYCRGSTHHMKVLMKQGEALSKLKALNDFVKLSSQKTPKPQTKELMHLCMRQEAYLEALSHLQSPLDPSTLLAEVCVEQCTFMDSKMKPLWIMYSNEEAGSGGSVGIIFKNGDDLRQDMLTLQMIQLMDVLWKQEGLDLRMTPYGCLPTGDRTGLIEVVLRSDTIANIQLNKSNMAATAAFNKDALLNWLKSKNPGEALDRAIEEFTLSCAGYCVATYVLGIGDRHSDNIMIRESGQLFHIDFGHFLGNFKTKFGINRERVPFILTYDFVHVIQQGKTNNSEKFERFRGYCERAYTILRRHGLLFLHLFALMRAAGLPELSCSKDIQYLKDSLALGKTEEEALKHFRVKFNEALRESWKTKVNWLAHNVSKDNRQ
# T1 sequence (P27986 whole entry partner): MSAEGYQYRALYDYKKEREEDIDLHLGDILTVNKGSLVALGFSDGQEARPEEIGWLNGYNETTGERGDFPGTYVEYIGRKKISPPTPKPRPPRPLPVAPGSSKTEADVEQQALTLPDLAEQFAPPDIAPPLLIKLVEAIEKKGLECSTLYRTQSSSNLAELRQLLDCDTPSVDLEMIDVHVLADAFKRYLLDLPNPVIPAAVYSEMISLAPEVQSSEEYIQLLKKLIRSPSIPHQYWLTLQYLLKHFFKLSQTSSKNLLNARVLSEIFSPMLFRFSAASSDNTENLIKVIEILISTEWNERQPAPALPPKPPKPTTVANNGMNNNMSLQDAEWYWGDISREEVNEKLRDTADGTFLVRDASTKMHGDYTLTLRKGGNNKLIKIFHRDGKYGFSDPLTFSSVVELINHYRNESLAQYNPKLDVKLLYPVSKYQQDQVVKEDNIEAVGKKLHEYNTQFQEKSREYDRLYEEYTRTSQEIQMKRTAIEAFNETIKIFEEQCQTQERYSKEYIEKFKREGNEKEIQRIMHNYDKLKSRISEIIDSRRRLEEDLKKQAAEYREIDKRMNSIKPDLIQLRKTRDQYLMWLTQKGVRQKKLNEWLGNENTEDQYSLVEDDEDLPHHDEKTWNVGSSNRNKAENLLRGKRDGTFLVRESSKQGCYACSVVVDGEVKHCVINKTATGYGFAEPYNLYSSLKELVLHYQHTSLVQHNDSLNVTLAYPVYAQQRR
# Sequence of PI3Kα (P42336 whole entry, species assumed): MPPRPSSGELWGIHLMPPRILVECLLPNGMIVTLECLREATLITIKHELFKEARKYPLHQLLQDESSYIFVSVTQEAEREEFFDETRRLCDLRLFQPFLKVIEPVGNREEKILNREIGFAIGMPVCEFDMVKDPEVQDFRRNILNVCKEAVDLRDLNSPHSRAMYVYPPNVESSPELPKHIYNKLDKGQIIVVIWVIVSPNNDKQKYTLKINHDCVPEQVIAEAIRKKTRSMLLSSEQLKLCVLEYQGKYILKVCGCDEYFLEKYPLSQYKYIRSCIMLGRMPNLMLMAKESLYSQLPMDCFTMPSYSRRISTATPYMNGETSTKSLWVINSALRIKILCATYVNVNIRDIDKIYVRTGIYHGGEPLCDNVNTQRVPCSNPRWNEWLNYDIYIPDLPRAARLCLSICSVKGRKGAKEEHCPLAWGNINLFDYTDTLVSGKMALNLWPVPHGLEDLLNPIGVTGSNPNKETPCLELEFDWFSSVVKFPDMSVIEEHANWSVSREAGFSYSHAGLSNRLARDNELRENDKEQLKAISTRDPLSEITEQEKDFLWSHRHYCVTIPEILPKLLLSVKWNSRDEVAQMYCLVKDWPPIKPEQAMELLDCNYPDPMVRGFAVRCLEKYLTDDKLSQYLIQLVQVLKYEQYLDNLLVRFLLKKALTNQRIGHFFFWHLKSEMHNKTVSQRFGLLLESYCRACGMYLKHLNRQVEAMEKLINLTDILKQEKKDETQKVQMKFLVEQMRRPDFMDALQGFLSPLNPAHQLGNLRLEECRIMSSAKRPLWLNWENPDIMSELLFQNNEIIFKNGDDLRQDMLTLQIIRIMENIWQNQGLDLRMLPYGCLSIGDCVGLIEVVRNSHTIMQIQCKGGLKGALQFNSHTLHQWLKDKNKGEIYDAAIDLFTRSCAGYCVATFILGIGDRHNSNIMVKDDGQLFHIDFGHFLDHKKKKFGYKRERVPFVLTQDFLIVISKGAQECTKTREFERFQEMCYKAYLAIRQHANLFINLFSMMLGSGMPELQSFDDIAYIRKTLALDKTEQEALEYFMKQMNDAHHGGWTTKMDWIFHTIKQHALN
# Sequence of PI3Kα (P27986 whole entry partner, species assumed): as the sequence (P27986 whole entry partner) above
# Sequence of PI3Kβ (P42338 whole entry, species assumed): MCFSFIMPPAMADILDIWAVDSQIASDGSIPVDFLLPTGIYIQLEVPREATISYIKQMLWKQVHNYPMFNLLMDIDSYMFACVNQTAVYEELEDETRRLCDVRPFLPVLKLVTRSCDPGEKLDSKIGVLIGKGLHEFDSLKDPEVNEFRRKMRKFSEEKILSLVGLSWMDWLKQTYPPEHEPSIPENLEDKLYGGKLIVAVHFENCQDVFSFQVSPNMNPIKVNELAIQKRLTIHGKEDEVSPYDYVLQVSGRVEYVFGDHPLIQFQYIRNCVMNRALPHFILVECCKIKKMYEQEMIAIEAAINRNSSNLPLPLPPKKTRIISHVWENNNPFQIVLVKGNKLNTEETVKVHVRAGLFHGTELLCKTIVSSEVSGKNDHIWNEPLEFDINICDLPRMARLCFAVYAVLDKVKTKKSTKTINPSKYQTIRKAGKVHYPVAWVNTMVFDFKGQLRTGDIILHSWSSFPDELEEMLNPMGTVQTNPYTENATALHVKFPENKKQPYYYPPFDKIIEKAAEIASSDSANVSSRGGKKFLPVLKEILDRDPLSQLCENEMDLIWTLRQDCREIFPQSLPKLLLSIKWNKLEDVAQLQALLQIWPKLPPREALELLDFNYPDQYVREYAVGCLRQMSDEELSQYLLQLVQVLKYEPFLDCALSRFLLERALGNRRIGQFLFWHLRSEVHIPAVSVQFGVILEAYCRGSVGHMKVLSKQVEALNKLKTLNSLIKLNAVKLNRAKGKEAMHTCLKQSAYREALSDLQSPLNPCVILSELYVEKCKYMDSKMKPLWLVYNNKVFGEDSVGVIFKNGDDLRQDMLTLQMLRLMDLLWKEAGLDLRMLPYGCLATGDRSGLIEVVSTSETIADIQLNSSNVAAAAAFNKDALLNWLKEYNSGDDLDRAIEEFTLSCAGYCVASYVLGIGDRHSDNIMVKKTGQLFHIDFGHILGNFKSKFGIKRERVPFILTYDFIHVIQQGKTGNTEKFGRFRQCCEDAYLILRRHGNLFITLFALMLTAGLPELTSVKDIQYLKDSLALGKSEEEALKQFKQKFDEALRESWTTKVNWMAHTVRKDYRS
# Sequence of PI3Kβ (P27986 whole entry partner, species assumed): as the sequence (P27986 whole entry partner) above
# Sequence of PI3Kγ (P48736 whole entry, species assumed): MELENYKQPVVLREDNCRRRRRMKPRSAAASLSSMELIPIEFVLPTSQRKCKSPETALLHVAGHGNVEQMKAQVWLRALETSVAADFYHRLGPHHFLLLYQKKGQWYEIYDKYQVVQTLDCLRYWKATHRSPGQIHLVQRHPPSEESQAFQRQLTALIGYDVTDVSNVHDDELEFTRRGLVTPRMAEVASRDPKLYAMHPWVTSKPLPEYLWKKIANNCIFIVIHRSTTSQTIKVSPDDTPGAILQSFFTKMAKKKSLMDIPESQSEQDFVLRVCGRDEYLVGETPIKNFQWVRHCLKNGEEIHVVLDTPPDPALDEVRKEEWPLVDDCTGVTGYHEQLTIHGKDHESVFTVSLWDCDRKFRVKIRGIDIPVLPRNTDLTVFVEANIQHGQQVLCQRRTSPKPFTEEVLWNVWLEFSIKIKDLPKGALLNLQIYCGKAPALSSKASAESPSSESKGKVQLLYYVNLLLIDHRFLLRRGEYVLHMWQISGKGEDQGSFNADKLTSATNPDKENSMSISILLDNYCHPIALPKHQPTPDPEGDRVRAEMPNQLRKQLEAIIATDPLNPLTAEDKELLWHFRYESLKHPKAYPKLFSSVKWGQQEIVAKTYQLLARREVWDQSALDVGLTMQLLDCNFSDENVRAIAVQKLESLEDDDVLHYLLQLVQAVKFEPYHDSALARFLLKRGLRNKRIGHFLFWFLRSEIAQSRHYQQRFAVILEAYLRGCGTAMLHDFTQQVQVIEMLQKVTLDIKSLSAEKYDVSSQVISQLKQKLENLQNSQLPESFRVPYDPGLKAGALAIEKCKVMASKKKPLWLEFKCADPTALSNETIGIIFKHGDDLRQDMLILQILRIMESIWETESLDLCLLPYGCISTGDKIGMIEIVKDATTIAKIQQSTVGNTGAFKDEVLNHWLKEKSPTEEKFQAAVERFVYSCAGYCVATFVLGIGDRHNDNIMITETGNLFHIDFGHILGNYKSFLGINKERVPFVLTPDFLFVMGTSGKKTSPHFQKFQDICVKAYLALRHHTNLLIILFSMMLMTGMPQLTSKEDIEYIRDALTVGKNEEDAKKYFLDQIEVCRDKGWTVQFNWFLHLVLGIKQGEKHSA
structure (smiles),measurement,setting,value
"COc1ncc(-c2cc(-c3ncc(CN4CCN(C(C)C)CC4)o3)c3cn[nH]c3c2)cc1C(=O)Oc1ccc(F)cc1 [Example 7, 4-Fluorophenyl 5-(4-(5-((4-isopropylpiperazin-1-yl)methyl)oxazol-2-yl)-1H-indazol-6-yl)-2-methoxynicotinate]",IC50,PI3Kα,3.16 µM
same,IC50,PI3Kβ,5.01 µM
same,IC50,PI3Kγ,15.8 µM
same,Additional adducts on PI3Kδ,"PI3Kδ [1]; 10:1 inhibitor:protein ratio, after 20 h (overnight)",no additional adducts
same,Covalent modification of PI3Kδ (protein mass spectrometry),"PI3Kδ [1]; 10:1 inhibitor:protein, incubated overnight",covalently modified
same,Adduct formation after preincubation of enzyme with potent ATP-competitive inhibitor,"PI3Kδ [1]; competitor 10:1 for 15 min, then 2 equivalents of covalent inhibitor, quenched at 5 min",prevented covalent modification; also recorded: attentuated formation of this adduct
same,Recovery of enzyme activity after jump dilution,PI3Kδ [2],No recovery of activity
same,Duration of action at PI3Kδ in CD4+ T cells,PI3Kδ in CD4+ T cells,at least 48 h
